Test results taken from patent US20150080438A1, “6,7-Dihydro-5H-benzo[7]annulene derivatives, processes for their preparation, pharmaceutical products comprising them and their use for preparing medicaments” (Bayer Intellectual Property GmbH, priority 2011, published 2015).

Molecular target: T1, oestrogen receptor (ER) (Homo sapiens, UniProt P03372)
T1 construct: These MVLN cells express, along with the functional oestrogen receptor (ER), a reporter construct; endogenous in cells; host or cells: MVLN cells (MCF7 derivative with ER-responsive luciferase reporter)
T1 sequence (P03372 1-595): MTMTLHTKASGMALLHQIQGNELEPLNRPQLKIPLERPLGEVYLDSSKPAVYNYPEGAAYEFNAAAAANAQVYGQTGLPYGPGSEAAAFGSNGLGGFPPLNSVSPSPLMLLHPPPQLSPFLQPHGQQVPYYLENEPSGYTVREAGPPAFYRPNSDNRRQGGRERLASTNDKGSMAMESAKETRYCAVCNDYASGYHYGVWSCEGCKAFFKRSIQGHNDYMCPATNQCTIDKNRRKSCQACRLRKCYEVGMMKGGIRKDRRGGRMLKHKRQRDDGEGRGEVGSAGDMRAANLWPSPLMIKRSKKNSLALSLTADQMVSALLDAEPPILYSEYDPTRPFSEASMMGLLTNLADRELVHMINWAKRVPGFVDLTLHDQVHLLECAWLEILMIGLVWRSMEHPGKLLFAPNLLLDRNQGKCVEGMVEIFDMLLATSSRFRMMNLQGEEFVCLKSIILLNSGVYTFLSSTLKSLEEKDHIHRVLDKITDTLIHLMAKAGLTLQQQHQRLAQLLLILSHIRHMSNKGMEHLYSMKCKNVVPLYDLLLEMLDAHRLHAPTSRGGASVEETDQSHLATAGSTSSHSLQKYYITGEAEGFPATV
Test: Anti-oestrogenic action in MVLN cells (inhibition of estradiol-induced luciferase, transactivation antagonism)
Assay type: cell-based
Settings: inhibition of estradiol-induced luciferase activity, read-out: Anti-oestrogenic action in vitro: MVLN transactivation antagonism IC50
Excerpt: The anti-oestrogenic action of the claimed pharmacological compounds was investigated in so-called MVLN cells in vitro. MVLN cells are derivatives of the hormone-responsive MCF7 breast cancer cells known by a person skilled in the art. These MVLN cells express, along with the functional oestrogen receptor (ER), a reporter construct, which under ER-activation expresses luciferase. Determination of the activity of the induced luciferase permits a direct conclusion on the oestrogen properties of substances. To investigate the anti-oestrogenic properties of the pharmacological compounds, they were investigated in the presence of oestrogen for their potential for inhibiting the luciferase signal induced by estradiol.
The claimed pharmacological test substances were investigated in MVLN cells for their anti-oestrogenic potential, as described (see Table 2).

| Compound | IC50 |
| --- | --- |
| [O-][S+](CCCN(CCO)CCCCCCC1=C(c2ccccc2)CCCc2cc(O)ccc21)CCC(F)(F)F (racemic) [Example 78, 9-{6-[(2-Hydroxyethyl){3-[(RS)-(3,3,3-trifluoropropyl)sulphinyl]propyl}amino]hexyl}-8-phenyl-6,7-dihydro-5H-benzo[7]annulen-3-ol] | 11 nM |
| [O-][S+](CCCN(CCCO)CCCCCCC1=C(c2ccccc2)CCCc2cc(O)ccc21)CCC(F)(F)F (racemic) [Example 80, 9-{6-[(3-Hydroxypropyl){3-[(RS)-(3,3,3-trifluoropropyl)sulphinyl]propyl}amino]hexyl}-8-phenyl-6,7-dihydro-5H-benzo[7]annulen-3-ol] | 9 nM |
| CC(C)(O)CN(CCCCCCC1=C(c2ccccc2)CCCc2cc(O)ccc21)CCC[S+]([O-])CCC(F)(F)F (racemic) [Example 82, 9-{6-[(2-Hydroxy-2-methylpropyl){3-[(RS)-(3,3,3-trifluoropropyl)sulphinyl]propyl}amino]hexyl}-8-phenyl-6,7-dihydro-5H-benzo[7]annulen-3-ol] | 9 nM |
| CN(CCCCCC1=C(c2ccccc2)CCCc2cc(O)ccc21)CCCC[S+]([O-])CCCC(F)(F)C(F)(F)F (racemic) [Example 84, 9-[5-(Methyl{4-[(RS)-(4,4,5,5,5-pentafluoropentyl)sulphinyl]butyl}amino)pentyl]-8-phenyl-6,7-dihydro-5H-benzo[7]annulen-3-ol] | 31 nM |
| CCN(CCCCCCC1=C(c2cccc(O)c2)CCCc2cc(O)ccc21)CCC[S+]([O-])CCCC(F)(F)C(F)(F)F (racemic) [Example 86, 9-[6-(Ethyl{3-[(RS)-(4,4,5,5,5-pentafluoropentyl)sulphinyl]propyl}amino)hexyl]-8-(3-hydroxyphenyl)-6,7-dihydro-5H-benzo[7]annulen-3-ol] | 1 nM |
| [O-][S+](CCCN(CCO)CCCCCCC1=C(c2cccc(O)c2)CCCc2cc(O)ccc21)CCCC(F)(F)C(F)(F)F (racemic) [Example 87, 9-{6-[(2-Hydroxyethyl){3-[(RS)-(4,4,5,5,5-pentafluoropentyl)sulphinyl]propyl}amino]hexyl}-8-(3-hydroxyphenyl)-6,7-dihydro-5H-benzo[7]annulen-3-ol] | 1 nM |
| [O-][S+](CCCN(CCCO)CCCCCCC1=C(c2cccc(O)c2)CCCc2cc(O)ccc21)CCCC(F)(F)C(F)(F)F (racemic) [Example 88, 8-(3-Hydroxyphenyl)-9-{6-[(3-hydroxypropyl){3-[(RS)-(4,4,5,5,5-pentafluoropentyl)sulphinyl]propyl}amino]hexyl}-6,7-dihydro-5H-benzo[7]annulen-3-ol] | 1 nM |
| CC(C)(O)CN(CCCCCCC1=C(c2cccc(O)c2)CCCc2cc(O)ccc21)CCC[S+]([O-])CCCC(F)(F)C(F)(F)F (racemic) [Example 89, 9-{6-[(2-Hydroxy-2-methylpropyl){3-[(RS)-(4,4,5,5,5-pentafluoropentyl)sulphinyl]propyl}amino]hexyl}-8-(3-hydroxyphenyl)-6,7-dihydro-5H-benzo[7]annulen-3-ol] | 2 nM |
| CCN(CCCCCCC1=C(c2cccc(O)c2)CCCc2cc(O)ccc21)CCC[S+]([O-])CCC(F)(F)F (racemic) [Example 94, 9-[6-(Ethyl{3-[(RS)-(3,3,3-trifluoropropyl)sulphinyl]propyl}amino)hexyl]-8-(3-hydroxyphenyl)-6,7-dihydro-5H-benzo[7]annulen-3-ol] | 9 nM |
| [O-][S+](CCCN(CCO)CCCCCCC1=C(c2cccc(O)c2)CCCc2cc(O)ccc21)CCC(F)(F)F (racemic) [Example 95, 9-{6-[(2-Hydroxyethyl){3-[(RS)-(3,3,3-trifluoropropyl)sulphinyl]propyl}amino]hexyl}-8-(3-hydroxyphenyl)-6,7-dihydro-5H-benzo[7]annulen-3-ol] | 7 nM |
| [O-][S+](CCCN(CCCO)CCCCCCC1=C(c2cccc(O)c2)CCCc2cc(O)ccc21)CCC(F)(F)F (racemic) [Example 96, 8-(3-Hydroxyphenyl)-9-{6-[(3-hydroxypropyl){3-[(RS)-(3,3,3-trifluoropropyl)sulphinyl]propyl}amino]hexyl}-6,7-dihydro-5H-benzo[7]annulen-3-ol] | 5 nM |
| CC(C)(O)CN(CCCCCCC1=C(c2cccc(O)c2)CCCc2cc(O)ccc21)CCC[S+]([O-])CCC(F)(F)F (racemic) [Example 97, 9-{6-[(2-Hydroxy-2-methylpropyl){3-[(RS)-(3,3,3-trifluoropropyl)sulphinyl]propyl}amino]hexyl}-8-(3-hydroxyphenyl)-6,7-dihydro-5H-benzo[7]annulen-3-ol] | 2 nM |
| CN(CCCCCCC1=C(c2ccccc2)CCCc2c1ccc(O)c2Cl)CCC[S+]([O-])CCCC(F)(F)C(F)(F)F (racemic) [Example 104, 4-Chloro-9-[6-(methyl{3-[(RS)-(4,4,5,5,5-pentafluoropentyl)sulphinyl]propyl}amino)hexyl]-8-phenyl-6,7-dihydro-5H-benzo[7]annulen-3-ol] | 25 nM |
| COCCCN(CCCCCCC1=C(c2cccc(O)c2)CCCc2cc(O)ccc21)CCC[S+]([O-])CCCC(F)(F)C(F)(F)F (racemic) [Example 108, 8-(3-Hydroxyphenyl)-9-{6-[(3-methoxypropyl){3-[(RS)-(4,4,5,5,5-pentafluoropentyl)sulphinyl]propyl}amino]hexyl}-6,7-dihydro-5H-benzo[7]annulen-3-ol] | 2 nM |
| CN(CCCCCCC1=C(c2ccc(F)c(O)c2)CCCc2c1ccc(O)c2F)CCCC[S+]([O-])CCC(F)(F)F (racemic) [Example 120, 4-Fluoro-8-(4-fluoro-3-hydroxyphenyl)-9-[6-(methyl{4-[(RS)-(3,3,3-trifluoropropyl)sulphinyl]butyl}amino)hexyl]-6,7-dihydro-5H-benzo[7]annulen-3-ol] | 5 nM |
| CN(CCCCCCC1=C(c2ccc(F)c(O)c2)CCCc2cc(O)c(F)cc21)CCC[S+]([O-])CCC(F)(F)C(F)(F)F (racemic) [Example 122, 2-Fluoro-8-(4-fluoro-3-hydroxyphenyl)-9-[6-(methyl{3-[(RS)-(3,3,4,4,4-pentafluorobutyl)sulphinyl]propyl}amino)hexyl]-6,7-dihydro-5H-benzo[7]annulen-3-ol] | 6 nM |
| CN(CCCCCCC1=C(c2ccc(F)c(O)c2)CCCc2cc(O)c(F)cc21)CCCC[S+]([O-])CCCC(F)(F)C(F)(F)F (racemic) [Example 124, 2-Fluoro-8-(4-fluoro-3-hydroxyphenyl)-9-[6-(methyl{4-[(RS)-(4,4,5,5,5-pentafluoropentyl)sulphinyl]butyl}amino)hexyl]-6,7-dihydro-5H-benzo[7]annulen-3-ol] | 6 nM |
| CN(CCCCCCC1=C(c2ccc(F)c(O)c2)CCCc2cc(O)c(F)cc21)CCC[S+]([O-])CCC(F)(F)F (racemic) [Example 125, 2-Fluoro-8-(4-fluoro-3-hydroxyphenyl)-9-[6-(methyl{3-[(RS)-(3,3,3-trifluoropropyl)sulphinyl]propyl}amino)hexyl]-6,7-dihydro-5H-benzo[7]annulen-3-ol] | 16 nM |
| CC(C)(O)CN(CCCCCCC1=C(c2ccc(F)c(O)c2)CCCc2cc(O)c(F)cc21)CCC[S+]([O-])CCC(F)(F)F (racemic) [Example 129, 2-Fluoro-8-(4-fluoro-3-hydroxyphenyl)-9-{6-[(2-hydroxy-2-methylpropyl){3-[(RS)-(3,3,3-trifluoropropyl)sulphinyl]propyl}amino]hexyl}-6,7-dihydro-5H-benzo[7]annulen-3-ol] | 4 nM |
| CN(CCCCCCC1=C(c2ccc(F)c(O)c2)CCCc2cc(O)c(F)cc21)CCC[S+]([O-])CCCC(F)(F)C(F)(F)F (racemic) [Example 130, 2-Fluoro-8-(4-fluoro-3-hydroxyphenyl)-9-[6-(methyl{3-[(RS)-(4,4,5,5,5-pentafluoropentyl)sulphinyl]propyl}amino)hexyl]-6,7-dihydro-5H-benzo[7]annulen-3-ol] | 5 nM |
| COCCN(CCCCCCC1=C(c2ccc(F)c(O)c2)CCCc2cc(O)c(F)cc21)CCC[S+]([O-])CCCC(F)(F)C(F)(F)F (racemic) [Example 131, 2-Fluoro-8-(4-fluoro-3-hydroxyphenyl)-9-{6-[(2-methoxyethyl){3-[(RS)-(4,4,5,5,5-pentafluoropentyl)sulphinyl]propyl}amino]hexyl}-6,7-dihydro-5H-benzo[7]annulen-3-ol] | 2 nM |
| COCCCN(CCCCCCC1=C(c2ccc(F)c(O)c2)CCCc2cc(O)c(F)cc21)CCC[S+]([O-])CCCC(F)(F)C(F)(F)F (racemic) [Example 132, 2-Fluoro-8-(4-fluoro-3-hydroxyphenyl)-9-{6-[(3-methoxypropyl){3-[(RS)-(4,4,5,5,5-pentafluoropentyl)sulphinyl]propyl}amino]hexyl}-6,7-dihydro-5H-benzo[7]annulen-3-ol] | 5 nM |
